Assay results taken from PMC6145842 (Biochemical and biophysical research communications, 2018).

Target: T1, DXO (Mus musculus, UniProt O70348)
T1 sequence (O70348 1-397): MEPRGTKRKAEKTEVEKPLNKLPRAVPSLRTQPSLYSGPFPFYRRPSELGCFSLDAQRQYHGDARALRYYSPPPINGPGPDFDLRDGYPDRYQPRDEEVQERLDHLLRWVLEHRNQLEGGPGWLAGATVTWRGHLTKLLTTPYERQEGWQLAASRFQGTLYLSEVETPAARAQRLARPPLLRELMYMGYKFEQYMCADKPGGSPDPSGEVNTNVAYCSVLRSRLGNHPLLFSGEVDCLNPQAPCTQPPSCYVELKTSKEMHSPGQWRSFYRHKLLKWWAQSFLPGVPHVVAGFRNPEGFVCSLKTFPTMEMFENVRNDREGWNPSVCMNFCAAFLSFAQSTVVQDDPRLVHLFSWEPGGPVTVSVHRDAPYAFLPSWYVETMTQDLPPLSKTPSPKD
Assay: crystal structure at […] Å
Format: binding

Nc1ncnc2c1ncn2[C@@H]1O[C@H](COP(=O)(O)O)[C@@H](OP(=O)(O)O)[C@H]1O [pAp, adenosine 3’,5’-bisphosphate]
Kd: 20 to 30 mM
